From article PMC6211832, “Screening of candidate substrates and coupling ions of transporters by thermostability shift assays” (eLife, 2018)
Values belong to the compound of their own block, whether it stands above or below them.

Experiments:
GalP [1] = target: T1, GalP (Escherichia coli, UniProt P0AEP1); assay: CPM thermostability shift assay; type: binding; details: 50 mM compound, dodecyl-maltoside
T1 construct: full length, C-terminal His6; plasmid pGP1 in E. coli JM1100, purified in dodecyl-maltoside
T1 sequence (P0AEP1 whole entry): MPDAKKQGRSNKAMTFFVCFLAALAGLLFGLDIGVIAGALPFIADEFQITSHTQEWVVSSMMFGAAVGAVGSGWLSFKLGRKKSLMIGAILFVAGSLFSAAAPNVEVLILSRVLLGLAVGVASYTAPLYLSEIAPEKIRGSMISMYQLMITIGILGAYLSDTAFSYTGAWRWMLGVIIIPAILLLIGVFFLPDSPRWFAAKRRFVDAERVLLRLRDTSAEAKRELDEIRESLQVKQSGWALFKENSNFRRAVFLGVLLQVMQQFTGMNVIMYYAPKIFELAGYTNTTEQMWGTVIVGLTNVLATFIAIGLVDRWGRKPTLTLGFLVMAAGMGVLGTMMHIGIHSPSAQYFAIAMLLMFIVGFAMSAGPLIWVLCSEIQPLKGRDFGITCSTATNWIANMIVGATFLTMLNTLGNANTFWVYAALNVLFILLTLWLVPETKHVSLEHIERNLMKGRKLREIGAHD

[2] = target: T2, mitochondrial ADP/ATP carrier (AAC) (Thermothelomyces thermophilus, UniProt G2QNH0); assay: CPM thermostability shift assay; type: binding; details: 2.5 mM compound, pH 8.0, 100 mM NaCl, dodecyl-maltoside, tetraoleoyl cardiolipin
T2 construct: gene MYCTH_2316753; N-terminal His8 tag, TSED linker and Factor Xa site; expressed in S. cerevisiae WB.12 mitochondria, purified in dodecyl-maltoside
T2 sequence (G2QNH0 whole entry): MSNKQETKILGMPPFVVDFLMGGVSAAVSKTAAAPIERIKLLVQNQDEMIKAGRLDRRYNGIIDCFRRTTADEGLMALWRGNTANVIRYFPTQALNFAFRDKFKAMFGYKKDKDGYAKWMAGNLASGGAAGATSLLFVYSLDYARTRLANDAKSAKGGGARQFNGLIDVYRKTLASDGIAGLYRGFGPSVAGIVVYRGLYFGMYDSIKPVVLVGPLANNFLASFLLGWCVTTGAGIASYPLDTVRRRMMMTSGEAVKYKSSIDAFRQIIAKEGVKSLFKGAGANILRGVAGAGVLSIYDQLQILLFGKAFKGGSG
From the text: CPM thermostability shift assay on mitochondrial ADP/ATP carrier (AAC) | In the presence of ATP, ADP, and dADP the population was stabilized

Mhp1 = target: T3, Mhp1 (Microbacterium maritypicum, UniProt D6R8X8); assay: CPM thermostability shift assay; type: binding; details: 2 mM compound, 140 mM NaCl, pH 8.0, dodecyl-maltoside
T3 construct: gene hyuP; full length, C-terminal His6; plasmid pTTQ18, E. coli BL21(DE3), purified in dodecyl-maltoside
T3 sequence (D6R8X8 whole entry): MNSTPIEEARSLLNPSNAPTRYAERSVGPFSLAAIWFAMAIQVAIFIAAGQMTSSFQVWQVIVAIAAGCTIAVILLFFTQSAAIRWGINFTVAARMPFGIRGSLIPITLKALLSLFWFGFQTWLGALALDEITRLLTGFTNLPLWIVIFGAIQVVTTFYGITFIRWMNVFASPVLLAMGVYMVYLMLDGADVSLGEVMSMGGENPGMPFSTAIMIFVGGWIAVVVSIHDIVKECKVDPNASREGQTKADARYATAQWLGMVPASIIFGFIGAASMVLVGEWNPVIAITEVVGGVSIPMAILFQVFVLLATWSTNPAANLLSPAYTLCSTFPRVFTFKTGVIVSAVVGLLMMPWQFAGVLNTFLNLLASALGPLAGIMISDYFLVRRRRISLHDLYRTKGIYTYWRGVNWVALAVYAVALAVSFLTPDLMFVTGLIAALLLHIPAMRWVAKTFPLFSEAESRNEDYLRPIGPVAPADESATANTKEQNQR

GalP [3] = target: T1, GalP; assay: CPM thermostability shift assay; type: binding; details: 50 mM compound, dodecyl-maltoside; remark: listed apart in the source
[4] = target: T4, mitochondrial phosphate carrier of Tetrahymena thermophila (UniProt I7M3J0) (Tetrahymena thermophila, UniProt I7M3J0); assay: CPM thermostability shift assay; type: binding; details: 2.5 mM compound, pH 6.0, 100 mM NaCl, tetraoleoyl cardiolipin
T4 construct: gene TTHERM_00535740; N-terminal His8 tag, TSED linker and Factor Xa site; expressed in S. cerevisiae W303-1B mitochondria, purified in lauryl maltose neopentyl glycol
T4 sequence (I7M3J0 entry or part of it): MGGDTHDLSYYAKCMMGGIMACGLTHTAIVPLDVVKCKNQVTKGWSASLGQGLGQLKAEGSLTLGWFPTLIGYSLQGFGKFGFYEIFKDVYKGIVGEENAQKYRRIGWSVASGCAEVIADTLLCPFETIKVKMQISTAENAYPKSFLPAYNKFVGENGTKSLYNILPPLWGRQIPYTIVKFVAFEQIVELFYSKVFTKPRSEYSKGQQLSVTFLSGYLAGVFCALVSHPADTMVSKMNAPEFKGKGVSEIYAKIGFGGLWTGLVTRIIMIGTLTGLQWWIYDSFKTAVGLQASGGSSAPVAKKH

[5] = target: T4, mitochondrial phosphate carrier of Tetrahymena thermophila; assay: competition of […]-orthophosphate uptake in proteoliposomes; type: biochemical; details: 20 mM external glyoxylate, 20 μM [33P]-orthophosphate, pH 6.5, 20 mM internal compound

Structure (SMILES): OC[C@H]1OC(O)C[C@@H](O)[C@@H]1O (stereo partly drawn) [2-deoxy-D-glucose]
dTm (GalP [1]): to a lesser extent by D-talose, 2-deoxy-D-glucose, 6-deoxy-D-glucose

Structure (SMILES): C[C@H]1OC(O)[C@H](O)[C@@H](O)[C@@H]1O (stereo partly drawn) [6-deoxy-D-glucose]
dTm (GalP [1]): to a lesser extent by D-talose, 2-deoxy-D-glucose, 6-deoxy-D-glucose

Structure (SMILES): O=C1NC(=O)C(C=CBr)N1 (stereo not drawn) [BVH, 5-bromovinylhydantoin]
dTm (Mhp1): 11.9 ± 1.1 °C

Structure (SMILES): OC[C@H]1OC(O)[C@@H](O)[C@@H](O)[C@H]1O (stereo partly drawn) [D-talose]
dTm (GalP [1]): to a lesser extent by D-talose, 2-deoxy-D-glucose, 6-deoxy-D-glucose

Structure (SMILES): O=C1NC(=O)[C@H](Cc2ccccc2)N1 [L-BH, 5-benzyl-L-hydantoin]
dTm (Mhp1): 13.6 ± 1.2 °C

Structure (SMILES): O=C1NC(=O)[C@H](Cc2ccc3ccccc3c2)N1 [L-NMH, 5-(2-naphthylmethyl)-L-hydantoin]
dTm (Mhp1; inhibitor): 15.6 ± 1.7 °C

Structure (SMILES): O=CC(=O)O [glyoxylate]
inhibition of phosphate uptake [5]: in competition assays glyoxylate abolished uptake
dTm [4]: 3.6 ± 0.8 °C

Now from value to compound:

dTm [2]: 6.0 ± 0.5 °C
Structure (SMILES): Nc1ncnc2c1ncn2[C@@H]1O[C@H](COP(=O)(O)OP(=O)(O)O)[C@@H](O)[C@H]1O [ADP]

dTm [2]: 7.2 ± 0.2 °C
Structure (SMILES): Nc1ncnc2c1ncn2[C@@H]1O[C@H](COP(=O)(O)OP(=O)(O)OP(=O)(O)O)[C@@H](O)[C@H]1O [ATP]

dTm (GalP [3]): 2.1 ± 0.6 °C
Structure (SMILES): OC[C@H]1OC(O)[C@H](O)[C@@H](O)[C@H]1O (stereo partly drawn) [D-galactose]

dTm (GalP [3]): 4.2 ± 0.5 °C
Structure (SMILES): OC[C@H]1OC(O)[C@H](O)[C@@H](O)[C@@H]1O (stereo partly drawn) [D-glucose]

dTm [4]: 3.2 ± 0.5 °C
Structure (SMILES): CC(=O)OP(=O)(O)O [acetyl-phosphate]

dTm [2]: 1.8 ± 0.2 °C
Structure (SMILES): Nc1ncnc2c1ncn2[C@H]1C[C@H](O)[C@@H](COP(=O)(O)OP(=O)(O)O)O1 [dADP]

dTm [4]: 2.3 ± 0.2 °C
Structure (SMILES): C=C(OP(=O)(O)O)C(=O)O [phosphoenolpyruvate]
